Results as given in paper PMC12336824 (The Journal of Biological Chemistry, 2025).
In brackets after ≈: the same amount, converted by molar mass.

Tested on: V. cholerae Δnqr mutant
Assay: microbe, parasite or virus in culture
Format: cell-based

Q: Which “resistance of the growth to saturating concentrations of inhibitor” value does the source give for `CC(C)/N=c1\cc2n(-c3ccc(Cl)cc3)c3ccccc3nc-2cc1Nc1ccc(Cl)cc1` [clofazimine] here?
A: about 40%

Q: What about the MIC50 (Vibrio cholerae, 8 h) of the same compound?
A: 23 ± 6 µM (≈ 10.9 µg/mL)
